Assay results from US11696913B2, “Prolonged ectoparasite-controlling agent for animal” (MITSUI CHEMICALS AGRO, INC., priority 2017, dated 2023).

Legend:
[1] = system: Ixodes ricinus; assay: In vitro contact test with adult hard ticks (Ixodes ricinus); conditions: read-out: acaricidal activity; for pest or weed control at 1 µg/cm2, 1 µg/cm2: dose 1 μg/cm^2, 48 h; for pest or weed control at 5 µg/cm2, 5 µg/cm2: dose 5 μg/cm^2, 48 h; for pest or weed control at 0.2 µg/cm2, 0.2 µg/cm2: dose 0.2 μg/cm^2, 48 h
Summary of the method: (§1)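 Acaricidal activity = % ticks dead or moribund after 48 h contact with acetone-deposited compound on vial walls (e.g., 900 ppm solution → 5 μg/cm^2). Ambient conditions for R. sanguineus, 21° C./85% rel. hum. for other species; heat challenge at 45-50° C. separated climbers from moribund ticks.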

[2] = system: Spodoptera litura; assay: Insecticidal testing against common cutworm; type: in vivo; conditions: foliar, 144 h, concentration 100 ppm, cabbage leaf dip, second-stage larvae, after 6 days, read-out: pesticidal rate
Description: Insecticidal Testing Against Common Cutworm (Spodoptera litura)

[3] = system: Plutella xylostella; assay: Insecticidal testing against diamondback moth; type: in vivo; conditions: foliar, 144 h, concentration 100 ppm, cabbage leaf dip, third-stage larvae, after 6 days, read-out: pesticidal rate
Description: Insecticidal Testing Against Diamondback Moth (Plutella xylostella)

[4] = system: Dermacentor variabilis; assay: In vitro contact test with adult hard ticks (Dermacentor variabilis); conditions: read-out: acaricidal activity; for pest or weed control at 0.2 µg/cm2, 0.2 µg/cm2: dose 0.2 μg/cm^2, 48 h; for pest or weed control at 1 µg/cm2, 1 µg/cm2: dose 1 μg/cm^2, 48 h; for pest or weed control at 0.04 µg/cm2, 0.04 µg/cm2: dose 0.04 μg/cm^2, 48 h
Summary of the method: as §1

[5] = system: Ctenocephalides felis; assay: Ctenocephalides felis in-vitro feeding test with fleas (CTECFE oral); conditions: 48 hours, read-out: insecticidal feeding activity; for pest or weed control at 0.16 ppm: dose 0.16 ppm in citrated cattle blood; for pest or weed control at 0.8 ppm: dose 0.8 ppm in citrated cattle blood; for pest or weed control at 4 ppm: dose 4 ppm in citrated cattle blood
Summary of the method: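 Scored as percent fleas killed (0–100%) 48 hours after feeding began. Compound, dissolved in DMSO and diluted into citrated cattle blood, was offered via a parafilm membrane to roughly 20 adult male and female C. felis at about 37° C.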

[6] = system: Rhipicephalus sanguineus; assay: In vitro contact test with adult hard ticks (Rhipicephalus sanguineus); conditions: read-out: acaricidal activity; for pest or weed control at 0.2 µg/cm2, 0.2 µg/cm2: dose 0.2 μg/cm^2, 48 h; for pest or weed control at 1 µg/cm2, 1 µg/cm2: dose 1 μg/cm^2, 48 h; for pest or weed control at 0.04 µg/cm2, 0.04 µg/cm2: dose 0.04 μg/cm^2, 48 h
Summary of the method: as §1

[7] = system: Laodelphax striatellus; assay: Insecticidal testing against small brown planthopper; type: in vivo; conditions: 144 h, concentration 100 ppm, sprayed rice seedlings, after 6 days, read-out: pesticidal rate
Summary of the method: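 Acetone solution of compound at a set concentration sprayed onto rice seedlings, air-dried, then exposed to 10 planthoppers (one group). Held at 25° C; survival rate recorded after 6 days.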

[8] = system: Ctenocephalides felis; assay: In vitro contact test with fleas; conditions: read-out: insecticidal activity; for pest or weed control at 0.2 µg/cm2, 0.2 µg/cm2: dose 0.2 μg/cm^2, dead or moribund fleas after 48 h; for pest or weed control at 1 µg/cm2, 1 µg/cm2: dose 1 μg/cm^2, dead or moribund fleas after 48 h; for pest or weed control at 0.04 µg/cm2, 0.04 µg/cm2: dose 0.04 μg/cm^2, dead or moribund fleas after 48 h
Summary of the method: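 Activity is the percentage of fleas dead or moribund at 48 h, judged by immobility or uncoordinated movement after tapping. Tubes were coated by evaporating acetone solutions (900 ppm gives 5 μg/cm^2), then held 5-10 adult fleas of both sexes at room temperature and ambient humidity.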

[9] = system: Rhipicephalus (Boophilus) microplus; assay: In vitro injection test with Rhipicephalus (Boophilus) microplus (BOOPMI Inj); conditions: 168 h, laid fertile eggs after 7 days, read-out: acaricidal activity; for pest or weed control at 32 ng: dose 0.032 μg/animal injected; for pest or weed control at 0.00016 mg: dose 0.16 μg/animal injected; for pest or weed control at 0.0008 mg: dose 0.8 μg/animal injected
Summary of the method: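 Five engorged adult females each get a 1 μl abdominal injection of compound dissolved and diluted in DMSO. Kept 7 days at 28° C./85% rel. hum.; percent activity rates egg laying and egg fertility (0% all fertile, 100% none laid or infertile).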

[10] = system: Amblyomma americanum; assay: In vitro contact test with hard ticks (Amblyomma americanum nymphs); conditions: read-out: acaricidal activity; for pest or weed control at 0.2 µg/cm2, 0.2 µg/cm2: dose 0.2 μg/cm^2, 48 h; for pest or weed control at 1 µg/cm2, 1 µg/cm2: dose 1 μg/cm^2, 48 h
Summary of the method: as §1

Row | SMILES | pest or weed control at 1 µg/cm2, 1 µg/cm2 [1] [%] | pest or weed control at 5 µg/cm2, 5 µg/cm2 [1] [%] | pest or weed control at 100 ppm [2] [%] | pest or weed control at 100 ppm [3] [%] | pest or weed control at 0.2 µg/cm2, 0.2 µg/cm2 [4] [%] | pest or weed control at 1 µg/cm2, 1 µg/cm2 [4] [%] | pest or weed control at 0.16 ppm [5] [%] | pest or weed control at 0.8 ppm [5] [%] | pest or weed control at 4 ppm [5] [%] | pest or weed control at 0.2 µg/cm2, 0.2 µg/cm2 [6] [%] | pest or weed control at 1 µg/cm2, 1 µg/cm2 [6] [%] | pest or weed control at 100 ppm [7] [%] | pest or weed control at 0.2 µg/cm2, 0.2 µg/cm2 [8] [%] | pest or weed control at 1 µg/cm2, 1 µg/cm2 [8] [%] | pest or weed control at 32 ng [9] [%] | pest or weed control at 0.00016 mg [9] [%] | pest or weed control at 0.0008 mg [9] [%] | pest or weed control at 0.2 µg/cm2, 0.2 µg/cm2 [10] [%] | pest or weed control at 1 µg/cm2, 1 µg/cm2 [10] [%] | pest or weed control at 0.2 µg/cm2, 0.2 µg/cm2 [1] [%] | other results
1 | O=C(Nc1cccc(C(=O)Nc2c(I)cc(C(F)(C(F)(F)F)C(F)(F)F)cc2S(=O)(=O)C(F)(F)F)c1F)c1ccc(F)cc1 [Compound 64] | 90 | 90 | ≥ 70 | ≥ 70 | 90 | 90 | 95 | 95 | 95 | 90 | 90 | ≥ 70 | 95 | 95 | 100 | 100 | 100 | 90 | 90 |  | 
2 | O=C(Nc1cccc(C(=O)Nc2c(Br)cc(C(F)(C(F)(F)F)C(F)(F)F)cc2OC(F)(F)F)c1F)c1ccc(F)cc1 [Compound 71] | 90 | 90 | ≥ 70 | ≥ 70 | 90 | 90 |  | 95 | 95 | 90 | 90 | ≥ 70 | 95 | 95 | 100 | 100 | 100 | 90 | 90 | 90 | pest or weed control at 0.04 µg/cm2, 0.04 µg/cm2 [6]: 90%
3 | O=C(Nc1cccc(C(=O)Nc2c(I)cc(C(F)(C(F)(F)F)C(F)(F)F)cc2OC(F)(F)F)c1F)c1ccc(F)cc1 [Compound 73] | 90 | 90 | ≥ 70 | ≥ 70 | 90 | 90 | 95 | 95 | 95 | 90 | 90 | ≥ 70 | 95 | 95 | 100 | 100 | 100 | 90 | 90 | 90 | pest or weed control at 0.04 µg/cm2, 0.04 µg/cm2 [4]: 90%; pest or weed control at 0.04 µg/cm2, 0.04 µg/cm2 [6]: 90%; pest or weed control at 0.04 µg/cm2, 0.04 µg/cm2 [8]: 95%
4 | O=C(Nc1cccc(C(=O)Nc2c(I)cc(C(F)(C(F)(F)F)C(F)(F)C(F)(F)F)cc2C(F)(F)F)c1F)c1ccc(F)c(F)c1 (centres unmarked) [Compound 78] | 90 | 90 | ≥ 70 | ≥ 70 | 90 | 90 | 95 | 95 | 95 | 90 | 90 | ≥ 70 | 95 | 95 | 100 | 100 | 100 | 90 | 90 | 90 | pest or weed control at 0.04 µg/cm2, 0.04 µg/cm2 [4]: 90%
5 | N#Cc1ccc(C(=O)Nc2cccc(C(=O)Nc3c(I)cc(C(F)(C(F)(F)F)C(F)(F)F)cc3C(F)(F)F)c2F)cn1 [Compound 79] | 90 | 90 | ≥ 70 | ≥ 70 |  | 90 | 95 | 95 | 95 | 90 | 90 | ≥ 70 | 95 | 95 | 100 | 100 | 100 | 90 | 90 |  | 
6 | CN(C(=O)c1ccc(F)nc1)c1cccc(C(=O)Nc2c(I)cc(C(F)(C(F)(F)F)C(F)(F)C(F)(F)F)cc2C(F)(F)F)c1F (centres unmarked) [Compound 81] |  | 90 | ≥ 70 | ≥ 70 | 90 | 90 | 95 | 95 | 95 | 90 | 90 | ≥ 70 | 95 | 95 | 100 | 100 | 100 | 90 | 90 |  | pest or weed control at 0.04 µg/cm2, 0.04 µg/cm2 [4]: 90%; pest or weed control at 0.04 µg/cm2, 0.04 µg/cm2 [8]: 95%; pest or weed control at 6.4 ng ([9]; dose 0.0064 μg/animal injected): 100%
